For orientation: IC50 means the point on the concentration scale where inhibition reaches its midpoint.

One assay has as its system MIA PaCa-2 cells. As to the kind of experiment: MIA PaCa-2 xenografts, ULK inhibitor alone versus gemcitabine. Format: in vivo, nude mice. As to conditions: day 42, Compound 14 20 mg/kg twice daily, gemcitabine dose not given. As for the experimental part: MIA PaCa-2 cells were injected bilaterally into the flanks of nude mice to create tumor xenografts in order to assess the efficacy of Compound 14 in treating pancreatic cancer tumors compared to gemcitabine, a current standard of care therapy for pancreatic cancer. After 3 days of letting tumor cells proliferate (at which point tumors were ˜100 mm^3 in volume), administration of gemcitabine or Compound 14 was initiated. One cohort received 20 mg/kg twice daily doses of Compound 14, one cohort received gemcitabine, and the remaining cohort was treated with vehicle. Treatment and monitoring were continued until day 42 post inoculation of tumor cells (30 days of treatment).

In assay [1] the test system is A549 cells. As to the kind of experiment: A549 xenografts, ULK inhibitor alone and in combination with carboplatin. Format: in vivo, nude mice. How it is done:
A549 cells (5M cells) were injected bilaterally into the flanks of thirty-six nude mice to create tumor xenografts in order to assess the efficacy of Compound 14 in treating non-small cell lung cancer tumors both alone and in combination with carboplatin, the current standard of care therapy for non-small cell lung cancer. After 11 days of letting tumor cells proliferate (at which point tumors were ˜50 mm^3 in volume), administration of carboplatin, Compound 14, or combinations began. One cohort of six mice received 20 mg/kg twice daily doses of Compound 14 alone, one cohort of six mice received 30 mg/kg twice daily doses of Compound 14 alone, one cohort of six mice received 25 mg/kg doses of carboplatin every three days, one cohort of six mice received 20 mg/kg twice daily doses of Compound 14 in conjunction with 25 mg/kg doses of carboplatin every three days, one cohort of six mice received 30 mg/kg twice daily doses of Compound 14 in conjunction with 25 mg/kg doses of carboplatin every three days, and the remaining six mice were treated with vehicle. Treatment and monitoring was continued until day 53 post inoculation of tumor cells (42 days of treatment).

Assay [2] relates to A549 cells. Kind of assay: A549 xenograft large tumors, ULK inhibitor alone versus carboplatin. In kind it is in vivo, nude mice. As to conditions: A549 large tumors (over 200 mm^3 at start); carboplatin 25 mg/kg every three days; day 72. As for the experimental part:
A549 cells (5M cells) were injected bilaterally into the flanks of forty-six nude mice to create tumor xenografts in order to assess the efficacy of Compound 14 in treating larger non-small cell lung cancer tumors compared to carboplatin, the current standard of care therapy for non-small cell lung cancer. After 40 days of letting tumor cells proliferate (at which point tumors were over 200 mm^3 in volume), administration of carboplatin or Compound 14 was initiated. One cohort of twelve mice received 20 mg/kg twice daily doses of Compound 14, one cohort of ten mice received 30 mg/kg twice daily doses of Compound 14, one cohort of seven mice received 25 mg/kg doses of carboplatin every three days, one cohort of seven mice received 40 mg/kg once daily doses of Compound 14, and the remaining ten mice were treated with vehicle. Treatment and monitoring was continued until day 72 post inoculation of tumor cells (32 days of treatment).

The test system of a further assay is MDA-MB-468 cells. As to the kind of experiment: CellTiter-Glo cell viability dose-response matrix, synergy by Combenefit (Loewe model). As to conditions: 72 h; for concentrations at which significant synergy was observed: combination of Compound 349 and olaparib. Format: cell-based. How it is done:
Different concentrations of Compound 349 with olaparib (FIG. 13A) were tested to measure the combined effect of inhibiting both ULK1/2 and PARP. For these experiments, MDA-MB-468 cells were treated with Compound 349 (0-15 μM) and olaparib (0-15 μM) in a dose-response matrix for 72 h, and cell viability was assessed by a CellTiter-Glo assay, and the synergistic effect was analyzed with Combenefit using the Loewe model.
In general terms: In ATP-based viability assays light output follows the ATP content of the culture.

In assay [3] the test system is MDA-MB-468 cells expressing mCherry-EGFP-LC3. Kind of assay: Autophagic flux by flow cytometry. In kind it is cell-based. As to conditions: 48 h. As for the experimental part:
To investigate the mechanism by which Compound 349 potentiates the cytotoxic effects of PARP inhibitors, MDA-MB-468 cells expressing mCherry-EGFP-LC3 were treated with olaparib (30 μM) and/or Compound 349 (10 μM) for 48 h and then quantified for autophagic flux. For these experiments, MDA-MB-468 cells stably expressing the mCherry-GFP-LC3 fusion protein were plated in 6-well plates at a density of 6×10^5 cells/well in growth media DMEM/F12+GlutaMAX-1 (Gibco) supplemented with 10% FBS (Gibco) and 1× Anti-Anti (Gibco) and allowed to grow overnight. Cells were treated, trypsinized, and then resuspended in PBS, and analytical cytometry was performed using an LSRFortessa 14-color (BD Biosciences) with a 488 nm and […] laser. For flow cytometry, wild type MDA-MB-468 cells were used as the unstained control, and MDA-MB-468 cells expressing either mCherry or GFP were used for comparison. Events of 10,000 were collected for each sample.
(In general: In flow cytometry, cells or beads pass a laser one at a time.)

The target in another assay is T1, ULK1 (Homo sapiens, UniProt O75385).
T1 sequence (O75385 1-1050): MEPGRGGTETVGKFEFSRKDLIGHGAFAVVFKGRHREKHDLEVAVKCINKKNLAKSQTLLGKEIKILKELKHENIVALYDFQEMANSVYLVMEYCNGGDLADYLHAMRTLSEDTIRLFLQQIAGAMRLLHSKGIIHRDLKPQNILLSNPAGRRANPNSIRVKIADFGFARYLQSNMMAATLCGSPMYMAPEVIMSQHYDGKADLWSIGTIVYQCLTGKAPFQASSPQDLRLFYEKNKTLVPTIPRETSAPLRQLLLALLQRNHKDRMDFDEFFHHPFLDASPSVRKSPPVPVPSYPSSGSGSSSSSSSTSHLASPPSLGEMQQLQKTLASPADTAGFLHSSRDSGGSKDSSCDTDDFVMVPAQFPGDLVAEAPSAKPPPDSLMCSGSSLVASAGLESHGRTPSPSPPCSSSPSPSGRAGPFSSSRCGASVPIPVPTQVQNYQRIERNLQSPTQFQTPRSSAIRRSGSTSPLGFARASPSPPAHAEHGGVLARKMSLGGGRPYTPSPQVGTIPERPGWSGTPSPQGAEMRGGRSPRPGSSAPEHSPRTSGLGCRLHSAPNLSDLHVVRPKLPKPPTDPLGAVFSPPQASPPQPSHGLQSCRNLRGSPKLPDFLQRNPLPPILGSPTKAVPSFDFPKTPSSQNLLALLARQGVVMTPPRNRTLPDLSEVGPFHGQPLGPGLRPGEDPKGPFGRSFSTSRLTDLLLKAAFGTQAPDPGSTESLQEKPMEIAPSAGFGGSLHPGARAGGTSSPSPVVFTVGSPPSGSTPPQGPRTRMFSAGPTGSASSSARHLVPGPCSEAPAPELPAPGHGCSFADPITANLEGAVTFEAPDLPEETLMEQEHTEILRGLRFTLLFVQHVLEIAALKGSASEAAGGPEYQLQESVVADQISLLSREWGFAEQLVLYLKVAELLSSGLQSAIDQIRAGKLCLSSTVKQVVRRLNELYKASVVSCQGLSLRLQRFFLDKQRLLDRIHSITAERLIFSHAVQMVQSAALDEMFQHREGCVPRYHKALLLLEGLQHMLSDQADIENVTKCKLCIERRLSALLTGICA
Kind of assay: ULK1 inhibition assay. As to conditions: * = tested as a mixture of regioisomers. In kind it is biochemical.

Molecules are shown by their SMILES. Bounds are passed on as bounds.

As for `Nc1ccn([C@@H]2O[C@H](CO)[C@@H](O)C2(F)F)c(=O)n1` [gemcitabine, reference compound], in the assay with MIA PaCa-2 cells, the final tumor volume is reported as roughly 800 mm^3.
Consider `N.N.O=C([O-])C1(C(=O)[O-])CCC1.[Pt+2]` [carboplatin, reference compound], for which the “final tumor average volume” value with A549 cells [1] (carboplatin 25 mg/kg every three days alone, day 53) is given as roughly 200 mm^3. For the same molecule, the “tumor growth compared to the control” value in the assay with A549 cells [1] (monotherapy: carboplatin 25 mg/kg every three days, Compound 14 20 mg/kg twice daily) was “markedly reduced growth compared to the control”. In addition, the “tumor volume by the end of the study” value with A549 cells [2] is listed as “above 500 mm^3”.
In the case of `COc1ccc(Nc2ncc(C(F)(F)F)c(NC3CC3)n2)cc1OC` [Compound 349], the antiproliferative synergy entry in the assay on MDA-MB-468 cells (Compound 349 (0-15 μM) with olaparib (0-15 μM)) is given as “strong antiproliferative synergy”. The maximum synergy score in the assay with MDA-MB-468 cells (Compound 349 (0-15 μM) with olaparib (0-15 μM), Loewe model) was found to be 34. The “concentrations at which significant synergy was observed” value in the assay with MDA-MB-468 cells was in the range of 0.021 to 15 µM. Moreover, the “olaparib-induced increase in autophagic flux” value in assay [3] (Compound 349 10 μM concomitant with olaparib 30 μM) is “significantly suppressed the olaparib-induced increase in autophagic flux to a level similar to that observed in untreated control cells”. Further, the IC50 on ULK1 is less than 200 nM.
In the case of `O=C(c1cc(Cc2n[nH]c(=O)c3ccccc23)ccc1F)N1CCN(C(=O)C2CC2)CC1` [olaparib, reference compound], the “concentrations at which significant synergy was observed” value in the assay on MDA-MB-468 cells was 3.8 to 15 µM. Also, in assay [3] (olaparib 30 μM alone), the “increase in autophagic flux compared with control cells” value is recorded as “approximately 30%”.

These data come from patent publication US20230130766A1 (SALK INSTITUTE FOR BIOLOGICAL STUDIES, priority 2020, published 2023).
